# Patent US20170151240A1, “F10 Inhibits Growth of PC3 Xenografts and Enhances the Effects of Radiation Therapy” (WAKE FOREST UNIVERSITY, priority 2014, published 2017)
# Columns and labels:
# [1] = biological target: T1, thymidylate synthase (TS) (Homo sapiens, UniProt P04818); experiment: TS catalytic activity assay in treated PC3 cells; type: cell-based; conditions: 5-FU 10^−6 M
# T1 construct: endogenous in cells; host or cells: PC3 (human prostate cancer cell line, ATCC)
# Source text: (§1) Other anti-angiogenic/anti-tumor agents that can be used in conjunction with the compounds, compositions, methods and combination therapy of the present invention include: SD-7784 (Pfizer, USA); cilengitide. […]
# [2] = once daily, three times per week; higher doses lethal; cited from earlier work
# PC3 cells = experiment: Clonogenic survival assay; type: cell-based, human; conditions: 72 h treatment; for decrease of colony formation relative to control: 10 μM
# Source text: as §1
# T1 sequence (P04818 2-313 limits assumed): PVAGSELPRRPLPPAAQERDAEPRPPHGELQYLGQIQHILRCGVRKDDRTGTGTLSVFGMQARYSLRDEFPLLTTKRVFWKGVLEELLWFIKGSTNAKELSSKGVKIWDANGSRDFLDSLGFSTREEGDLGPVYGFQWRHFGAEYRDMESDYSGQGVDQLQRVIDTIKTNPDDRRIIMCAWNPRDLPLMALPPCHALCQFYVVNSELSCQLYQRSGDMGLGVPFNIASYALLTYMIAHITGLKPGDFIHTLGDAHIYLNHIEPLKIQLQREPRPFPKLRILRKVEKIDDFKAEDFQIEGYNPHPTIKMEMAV
smiles,measurement,setting,value
"O=c1[nH]cc(F)c(=O)[nH]1 [5-FU, 5-fluorouracil]",TS activity relative to control,[1]; 8 and 16 h,increased
same,TS activity,[1]; 48 h timepoint,~50 % control
same,maximum tolerated dose,[2],45 mg/kg/dose
same,PC3 cell colony formation,PC3 cells; 1 μM,no effect
same,decrease of colony formation relative to control,PC3 cells,< 50%
same,decrease of colony formation relative to control,PC3 cells; listed as 5FU,less than 50%
